According to patent US20110224208A1, “NOVEL INHIBITORS OF FLAVIVIRUS REPLICATION” (KATHOLIEKE UNIVERSITEIT LEUVEN, K.U. LEUVEN R&D, priority 2008, published 2011):
In brackets after ≈: the same amount, converted by molar mass.

Columns and labels:
[1] = system: HCV replicon I389luc-ubi-neo/NS3-3'/5.1; test: Anti-HCV replicon assay (luciferase activity) in Huh-5-2 cells; format: cell-based, Hepatitis C virus; details: concentration required to inhibit luciferase activity in the replicon system by 50%
How it was run: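 Huh-5-2 cells carrying the luciferase HCV replicon, seeded 24 h, then exposed to serial compound dilutions without G418 for 72 h at 37° C, 5% CO2. Replication read as luciferase luminescence, expressed as percentage of untreated cultures; culture density measured in parallel by MTS.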

[2] = Proliferation of exponentially growing Huh-5-2 cells (MTS method); details: human, CC50, concentration required to inhibit the proliferation of exponentially growing Huh-5-2 cells by 50%; Table 2
Procedure: Cells were seeded at a density of 7000 cells per well in 96 well View Plate™ (Packard) in medium containing the same components as described above, except for G418. Cells were allowed to adhere and proliferate for 24 hr. At that time, culture medium was removed and serial dilutions of the test compounds were added in culture medium lacking G418. Interferon alfa 2a (500 IU) was included as a positive control. Plates were further incubated at 37° C. and 5% CO2 for 72 hours. Replication of the HCV replicon in Huh-5 cells results in luciferase activity in the cells. Luciferase activity is measured by adding 50 μl of 1×Glo-lysis buffer (Promega) for 15 minutes followed by 50 ul of the Steady-Glo Luciferase assay reagent (Promega). Luciferase activity is measured with a luminometer and the signal in each individual well is expressed as a percentage of the untreated cultures. […] Instead the density of the culture is measured by means of the MTS method (Promega).

[3] = Hepatitis C virus, Huh-5-2, 72 h

Compound: CCOCCN1C(=O)c2ccccc2C(C(=O)Nc2cccc(OC)c2)C1c1cccs1 (stereo not shown) [C65, 2-(2-Ethoxyethyl)-N-(3-methoxyphenyl)-1-oxo-3-(thiophen-2-yl)-1,2,3,4-tetrahydroisoquinoline-4-carboxamide]
- IC50 [1, 3]: 1.76 mg/L (≈ 3.91 µM)
- CC50 at 72 h [2]: 90.2 mg/L (≈ 200 µM)

Compound: COc1cccc(NC(=O)C2c3ccccc3C(=O)N(CCOC(C)C)C2c2cccs2)c1 (stereo not shown) [C66, 2-(2-Isopropoxyethyl)-N-(3-methoxyphenyl)-1-oxo-3-(thiophen-2-yl)-1,2,3,4-tetrahydroisoquinoline-4-carboxamide]
- IC50 [1, 3]: 1.99 mg/L (≈ 4.28 µM)
- CC50 at 72 h [2]: 39.2 mg/L (≈ 84.4 µM)

Compound: COCCN1C(=O)c2ccccc2C(C(=O)NCc2cccc3ccccc23)C1c1cccs1 (stereo not shown) [C72, 2-(2-methoxyethyl)-N-(naphthalen-1-ylmethyl)-1-oxo-3-(thiophen-2-yl)-1,2,3,4-tetrahydroisoquinoline-4-carboxamide]
- IC50 [1, 3]: 35.8 mg/L (≈ 76.1 µM)
- CC50 at 72 h [2]: 71.2 mg/L (≈ 151 µM)

Compound: COCCN1C(=O)c2ccccc2C(C(=O)Nc2ccc3scnc3c2)C1c1cccs1 (stereo not shown) [C81, N-(benzo[d]thiazol-5-yl)-2-(2-methoxyethyl)-1-oxo-3-(thiophen-2-yl)-1,2,3,4-tetrahydroisoquinoline-4-carboxamide]
- IC50 ([1]; 72 hours): 0.16 mg/L (≈ 0.345 µM)
- CC50 at 72 h [2]: 65 mg/L (≈ 140 µM)

Compound: COCCN1C(=O)c2ccccc2C(C(=O)Nc2cccc(OC)c2)C1CSC (stereo not shown) [C82, 2-(2-methoxyethyl)-N-(3-methoxyphenyl)-3-(methylthiomethyl)-1-oxo-1,2,3,4-tetrahydroisoquinoline-4-carboxamide]
- IC50 [1, 3]: 12 mg/L (≈ 28.9 µM)
- CC50 at 72 h [2]: 72 mg/L (≈ 174 µM)

Compound: C#CC1C(C(=O)Nc2cccc(OC)c2)c2ccccc2C(=O)N1CCOC (stereo not shown) [C83, 3-ethynyl-2-(2-methoxyethyl)-N-(3-methoxyphenyl)-1-oxo-1,2,3,4-tetrahydroisoquinoline-4-carboxamide]
- IC50 [1, 3]: 0.4 mg/L (≈ 1.06 µM)
- CC50 at 72 h [2]: 70 mg/L (≈ 185 µM)

Compound: COCCN1C(=O)c2ccccc2C(C(=O)Nc2ccc(C)cc2)C1c1cccs1 (stereo not shown) [C86, 2-(2-methoxyethyl)-1-oxo-3-(thiophen-2-yl)-N-p-tolyl-1,2,3,4-tetrahydroisoquinoline-4-carboxamide]
- IC50 [1, 3]: 0.25 mg/L (≈ 0.594 µM)
- CC50 at 72 h [2]: 75 mg/L (≈ 178 µM)

Compound: COCCN1C(=O)c2ccccc2C(C(=O)Nc2ccc(F)c(F)c2)C1c1cccs1 (stereo not shown) [C88, N-(3,4-difluorophenyl)-2-(2-methoxyethyl)-1-oxo-3-(thiophen-2-yl)-1,2,3,4-tetrahydroisoquinoline-4-carboxamide]
- IC50 [1, 3]: 2.7 mg/L (≈ 6.1 µM)
- CC50 at 72 h [2]: 60 mg/L (≈ 136 µM)

Compound: COCCN1C(=O)c2ccccc2C(C(=O)Nc2cccc(Cc3ccccc3)c2)C1c1cccs1 (stereo not shown) [C89, N-(3-benzylphenyl)-2-(2-methoxyethyl)-1-oxo-3-(thiophen-2-yl)-1,2,3,4-tetrahydroisoquinoline-4-carboxamide]
- IC50 [1, 3]: 0.11 mg/L (≈ 0.221 µM)
- CC50 at 72 h [2]: 0.62 mg/L (≈ 1.25 µM)

Compound: COCCN1C(=O)c2c(ccc(C)c2F)C(C(=O)Nc2cccc(OC)c2)C1c1cccs1 (stereo not shown) [C93, 8-fluoro-2-(2-methoxyethyl)-N-(3-methoxyphenyl)-7-methyl-1-oxo-3-(thiophen-2-yl)-1,2,3,4-tetrahydroisoquinoline-4-carboxamide]
- IC50 [1, 3]: 0.17 mg/L (≈ 0.363 µM)
- CC50 at 72 h [2]: 32.9 mg/L (≈ 70.2 µM)

Compound: COCCN1C(=O)c2ccccc2C(C(=O)Nc2ccc(F)cc2)C1c1cccs1 (stereo not shown) [C95, N-(4-fluorophenyl)-2-(2-methoxyethyl)-1-oxo-3-(thiophen-2-yl)-1,2,3,4-tetrahydroisoquinoline-4-carboxamide]
- IC50 [1, 3]: 2.21 mg/L (≈ 5.21 µM)
- CC50 at 72 h [2]: 76.3 mg/L (≈ 180 µM)

Compound: COCCN1C(=O)c2ccccc2C(C(=O)Nc2cccc(OC)c2)C1CC1CCOCC1 (stereo not shown) [C97, 2-(2-methoxyethyl)-N-(3-methoxyphenyl)-1-oxo-3-((tetrahydro-2H-pyran-4-yl)methyl)-1,2,3,4-tetrahydroisoquinoline-4-carboxamide]
- IC50 [1, 3]: 51.6 mg/L (≈ 114 µM)
- CC50 at 72 h [2]: 80 mg/L (≈ 177 µM)

Compound: COCCN1C(=O)c2ccccc2C(C(=O)Nc2cccc(OC)c2)C1c1csc(C)n1 (stereo not shown) [C98, 2-(2-methoxyethyl)-N-(3-methoxyphenyl)-3-(2-methylthiazol-4-yl)-1-oxo-1,2,3,4-tetrahydroisoquinoline-4-carboxamide]
- IC50 [1, 3]: 50.3 mg/L (≈ 111 µM)
- CC50 at 72 h [2]: 80.9 mg/L (≈ 179 µM)

Compound: COCCN1C(=O)c2ccccc2C(C(=O)Nc2cccc(OC)c2)C1c1cc(C)nn1C (stereo not shown) [C100, 3-(1,3-dimethyl-1H-pyrazol-5-yl)-2-(2-methoxyethyl)-N-(3-methoxyphenyl)-1-oxo-1,2,3,4-tetrahydroisoquinoline-4-carboxamide]
- IC50 [1, 3]: 56.8 mg/L (≈ 127 µM)
- CC50 at 72 h [2]: 86.7 mg/L (≈ 193 µM)

Compound: COCCN1C(=O)c2ccccc2C(C(=O)Nc2cccc(OC)c2)C1c1nccs1 (stereo not shown) [C102, 2-(2-methoxyethyl)-N-(3-methoxyphenyl)-1-oxo-3-(thiazol-2-yl)-1,2,3,4-tetrahydroisoquinoline-4-carboxamide]
- IC50 [1, 3]: 26.8 mg/L (≈ 61.3 µM)
- CC50 at 72 h [2]: 72.8 mg/L (≈ 166 µM)

Compound: COCCN1C(=O)c2ccccc2C(C(=O)Nc2cccc(OC)c2)C1c1cc(C)on1 (stereo not shown) [C103, 2-(2-methoxyethyl)-N-(3-methoxyphenyl)-3-(5-methylisoxazol-3-yl)-1-oxo-1,2,3,4-tetrahydroisoquinoline-4-carboxamide]
- IC50 [1, 3]: 40.4 mg/L (≈ 92.7 µM)
- CC50 at 72 h [2]: 75.2 mg/L (≈ 173 µM)

Compound: COCCN1C(=O)c2ccccc2C(C(=O)Nc2ccc(N3CCCCC3)cc2)C1c1cccs1 (stereo not shown) [C107, 2-(2-methoxyethyl)-1-oxo-N-(4-(piperidin-1-yl)phenyl)-3-(thiophen-2-yl)-1,2,3,4-tetrahydroisoquinoline-4-carboxamide]
- IC50 [1, 3]: 0.12 mg/L (≈ 0.245 µM)
- CC50 at 72 h [2]: 23.5 mg/L (≈ 47.9 µM)

Compound: COCCN1C(=O)c2ccccc2C(C(=O)Nc2cccc(NC(C)=O)c2)C1c1cccs1 (stereo not shown) [C108, N-(3-acetamidophenyl)-2-(2-methoxyethyl)-1-oxo-3-(thiophen-2-yl)-1,2,3,4-tetrahydroisoquinoline-4-carboxamide]
- IC50 [1, 3]: 3.71 mg/L (≈ 8 µM)
- CC50 at 72 h [2]: 77.3 mg/L (≈ 167 µM)

Compound: COCCN1C(=O)c2ccccc2C(C(=O)Nc2cccc(C(F)(F)F)c2)C1c1cccs1 (stereo not shown) [C110, 2-(2-methoxyethyl)-1-oxo-3-(thiophen-2-yl)-N-(3-(trifluoromethyl)phenyl)-1,2,3,4-tetrahydroisoquinoline-4 carboxamide]
- IC50 [1, 3]: 1.45 mg/L (≈ 3.06 µM)
- CC50 at 72 h [2]: 79.3 mg/L (≈ 167 µM)

Compound: COCCN1C(=O)c2ccccc2C(C(=O)Nc2ccc(Cl)c(OC)c2)C1c1cccs1 (stereo not shown) [C111, N-(4-chloro-3-methoxyphenyl)-2-(2-methoxyethyl)-1-oxo-3-(thiophen-2-yl)-1,2,3,4-tetrahydroisoquinoline-4-carboxamide]
- IC50 [1, 3]: 0.17 mg/L (≈ 0.361 µM)
- CC50 at 72 h [2]: 86.7 mg/L (≈ 184 µM)

Compound: COCCN1C(=O)c2ccccc2C(C(=O)Nc2ccc3c(c2)OCCO3)C1c1cccs1 (stereo not shown) [C117, N-(2,3-dihydrobenzo[b][1,4]dioxin-6-yl)-2-(2-methoxyethyl)-1-oxo-3-(thiophen-2-yl)-1,2,3,4-tetrahydroisoquinoline-4-carboxamide]
- IC50 [1, 3]: 0.36 mg/L (≈ 0.775 µM)
- CC50 at 72 h [2]: 81.9 mg/L (≈ 176 µM)

Compound: COCCN1C(=O)c2ccccc2C(C(=O)Nc2cccc(OC)c2)C1C1CCCC1 (stereo not shown) [C118, 3-cyclopentyl-2-(2-methoxyethyl)-N-(3-methoxyphenyl)-1-oxo-1,2,3,4-tetrahydroisoquinoline-4-carboxamide]
- IC50 [1, 3]: 8.32 mg/L (≈ 19.7 µM)
- CC50 at 72 h [2]: 98.2 mg/L (≈ 233 µM)

Compound: COCCN1C(=O)c2ccccc2C(C(=O)Nc2cccc(OC)c2)C1C#Cc1ccccc1 (stereo not shown) [C119, 2-(2-methoxyethyl)-N-(3-methoxyphenyl)-1-oxo-3-(phenylethynyl)-1,2,3,4-tetrahydroisoquinoline-4-carboxamide]
- IC50 [1, 3]: 4.63 mg/L (≈ 10.2 µM)
- CC50 at 72 h [2]: 94 mg/L (≈ 207 µM)

Compound: COCCN1C(=O)c2ccccc2C(C(=O)Nc2cccc(OC)c2)C1C=C(C)C (stereo not shown) [C120, 2-(2-methoxyethyl)-N-(3-methoxyphenyl)-3-(2-methylprop-1-enyl)-1-oxo-1,2,3,4-tetrahydroisoquinoline-4-carboxamide]
- IC50 [1, 3]: 3.28 mg/L (≈ 8.03 µM)
- CC50 at 72 h [2]: 95.4 mg/L (≈ 233 µM)

Compound: COCCN1C(=O)c2ccccc2C(C(=O)Nc2cccc(N3CCCC3)c2)C1c1cccs1 (stereo not shown) [C122, 2-(2-methoxyethyl)-1-oxo-N-(3-(pyrrolidin-1-yl)phenyl)-3-(thiophen-2-yl)-1,2,3,4-tetrahydroisoquinoline-4-carboxamide]
- IC50 [1, 3]: 0.37 mg/L (≈ 0.778 µM)
- CC50 at 72 h [2]: 81.3 mg/L (≈ 171 µM)

Compound: COCCN1C(=O)c2ccccc2C(C(=O)Nc2ccc3c(ccn3C)c2)C1c1cccs1 (stereo not shown) [C123, 2-(2-methoxyethyl)-N-(1-methyl-1H-indol-5-yl)-1-oxo-3-(thiophen-2-yl)-1,2,3,4-tetrahydroisoquinoline-4-carboxamide]
- IC50 [1, 3]: 0.25 mg/L (≈ 0.544 µM)
- CC50 at 72 h [2]: 87.9 mg/L (≈ 191 µM)

Compound: CCc1nnc(NC(=O)C2c3ccccc3C(=O)N(CCOC)C2c2cccs2)o1 (stereo not shown) [C125, N-(5-ethyl-1,3,4-oxadiazol-2-yl)-2-(2-methoxyethyl)-1-oxo-3-(thiophen-2-yl)-1,2,3,4-tetrahydroisoquinoline-4-carboxamide]
- IC50 [1, 3]: 7.3 mg/L (≈ 17.1 µM)
- CC50 at 72 h [2]: 53.6 mg/L (≈ 126 µM)

Compound: COCCN1C(=O)c2ccccc2C(C(=O)Nc2cc(C)on2)C1c1cccs1 (stereo not shown) [C126, 2-(2-methoxyethyl)-N-(5-methylisoxazol-3-yl)-1-oxo-3-(thiophen-2-yl)-1,2,3,4-tetrahydroisoquinoline-4-carboxamide]
- IC50 [1, 3]: 0.9 mg/L (≈ 2.19 µM)
- CC50 at 72 h [2]: 58.1 mg/L (≈ 141 µM)

Compound: COCCN1C(=O)c2ccccc2C(C(=O)Nc2cc(C)no2)C1c1cccs1 (stereo not shown) [C127, 2-(2-methoxyethyl)-N-(3-methylisoxazol-5-yl)-1-oxo-3-(thiophen-2-yl)-1,2,3,4-tetrahydroisoquinoline-4-carboxamide]
- IC50 [1, 3]: 10.3 mg/L (≈ 25 µM)
- CC50 at 72 h [2]: 87.2 mg/L (≈ 212 µM)
